Reference: PubChem BioAssay (NCI)
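Five compound concentrations were applied to cells in 96-well plates for 48 hours; endpoints were derived by simple linear interpolation of the resulting dose-response curve. TGI denotes the concentration required for complete inhibition of growth.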

Key:
Experiment in all cases: DTP human tumour cell line panel, 48 h
IGROV1 ovarian = tested on: IGROV1 ovarian
OVCAR-4 ovarian = tested on: OVCAR-4 ovarian
LOX IMVI melanoma = tested on: LOX IMVI melanoma
UACC-257 melanoma = tested on: UACC-257 melanoma
UACC-62 melanoma = tested on: UACC-62 melanoma
DU-145 prostate = tested on: DU-145 prostate
HOP-92 NSCLC = tested on: HOP-92 NSCLC
SF-268 CNS = tested on: SF-268 CNS
EKVX NSCLC = tested on: EKVX NSCLC
NCI-H23 lung = tested on: NCI-H23 lung
SK-OV-3 ovarian = tested on: SK-OV-3 ovarian
OVCAR-8 ovarian = tested on: OVCAR-8 ovarian
HCC-2998 colon = tested on: HCC-2998 colon
MDA-N = tested on: MDA-N
SK-MEL-5 melanoma = tested on: SK-MEL-5 melanoma
M14 melanoma = tested on: M14 melanoma
HT29 colon = tested on: HT29 colon
SW-620 colon = tested on: SW-620 colon
A549 NSCLC = tested on: A549 NSCLC
SF-295 CNS = tested on: SF-295 CNS
K-562 leukemia = tested on: K-562 leukemia
RPMI-8226 leukemia = tested on: RPMI-8226 leukemia
786-0 renal = tested on: 786-0 renal
SR leukemia = tested on: SR leukemia
PC-3 prostate = tested on: PC-3 prostate
SK-MEL-28 melanoma = tested on: SK-MEL-28 melanoma
MDA-MB-435 = tested on: MDA-MB-435
CAKI-1 renal = tested on: CAKI-1 renal
SNB-75 CNS = tested on: SNB-75 CNS
MALME-3M melanoma = tested on: MALME-3M melanoma
RXF 393 renal = tested on: RXF 393 renal
HL-60(TB) leukemia = tested on: HL-60(TB) leukemia
MDA-MB-231 breast = tested on: MDA-MB-231 breast
HCT-15 colon = tested on: HCT-15 colon
CCRF-CEM leukemia = tested on: CCRF-CEM leukemia
T-47D breast = tested on: T-47D breast
SN12C renal = tested on: SN12C renal
MOLT-4 leukemia = tested on: MOLT-4 leukemia
HOP-62 NSCLC = tested on: HOP-62 NSCLC
MCF7 breast = tested on: MCF7 breast
KM12 colon = tested on: KM12 colon
TK-10 renal = tested on: TK-10 renal
COLO 205 colon = tested on: COLO 205 colon

CCOC(=O)N1CCC2C(=C(C)C(C)C3=C2C(=O)c2ccccc2C3=O)C1 (stereo not drawn)
TGI (IGROV1 ovarian): > 10 µM
TGI (OVCAR-4 ovarian): > 10 µM
TGI (LOX IMVI melanoma): > 10 µM
TGI (UACC-257 melanoma): > 10 µM
TGI (UACC-62 melanoma): > 10 µM
TGI (DU-145 prostate): > 10 µM
TGI (HOP-92 NSCLC): > 10 µM
TGI (SF-268 CNS): > 10 µM
TGI (EKVX NSCLC): > 10 µM
TGI (NCI-H23 lung): > 10 µM
TGI (SK-OV-3 ovarian): > 10 µM
TGI (OVCAR-8 ovarian): > 10 µM
TGI (HCC-2998 colon): > 10 µM
TGI (MDA-N): > 10 µM
TGI (SK-MEL-5 melanoma): 4.27 µM
TGI (M14 melanoma): > 10 µM
TGI (HT29 colon): > 10 µM
TGI (SW-620 colon): > 10 µM
TGI (A549 NSCLC): > 10 µM
TGI (SF-295 CNS): > 10 µM
TGI (K-562 leukemia): > 10 µM
TGI (RPMI-8226 leukemia): > 10 µM
TGI (786-0 renal): > 10 µM
TGI (SR leukemia): > 10 µM
TGI (PC-3 prostate): > 10 µM
TGI (SK-MEL-28 melanoma): > 10 µM
TGI (MDA-MB-435): 4.53 µM
TGI (CAKI-1 renal): > 10 µM
TGI (SNB-75 CNS): > 10 µM
TGI (MALME-3M melanoma): 6.77 µM
TGI (RXF 393 renal): > 10 µM
TGI (HL-60(TB) leukemia): 5.15 µM
TGI (MDA-MB-231 breast): > 10 µM
TGI (HCT-15 colon): > 10 µM
TGI (CCRF-CEM leukemia): > 10 µM
TGI (T-47D breast): > 10 µM
TGI (SN12C renal): > 10 µM
TGI (MOLT-4 leukemia): > 10 µM
TGI (HOP-62 NSCLC): > 10 µM
TGI (MCF7 breast): > 10 µM
TGI (KM12 colon): > 10 µM
TGI (TK-10 renal): > 10 µM
TGI (COLO 205 colon): > 10 µM
